The assay addresses T1, Nuclear receptor subfamily 1 group I member 2 (Homo sapiens, UniProt O75469).
T1 sequence (O75469 whole entry): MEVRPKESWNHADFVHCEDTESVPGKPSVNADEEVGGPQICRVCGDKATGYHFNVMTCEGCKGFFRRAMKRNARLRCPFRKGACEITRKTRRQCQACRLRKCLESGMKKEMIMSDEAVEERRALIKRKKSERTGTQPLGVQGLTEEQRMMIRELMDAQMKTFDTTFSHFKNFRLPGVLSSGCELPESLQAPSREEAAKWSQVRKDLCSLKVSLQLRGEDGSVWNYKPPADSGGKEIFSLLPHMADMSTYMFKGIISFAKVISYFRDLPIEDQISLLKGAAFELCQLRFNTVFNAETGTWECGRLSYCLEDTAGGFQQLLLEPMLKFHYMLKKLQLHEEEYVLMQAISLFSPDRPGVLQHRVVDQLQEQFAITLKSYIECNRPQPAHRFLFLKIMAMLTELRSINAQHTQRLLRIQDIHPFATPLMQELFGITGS
Put plainly: Competition Ligand Binding Assay and Transient Transfection Assay. The note with it: pH 8; 22 °C. As to the method: Polylysine YiO imaging beads (Amersham, GE Healthcare) were coated with histidine-tagged WT PXR LBD. Nonspecific binding sites were blocked with BSA. [N-Methyl-3H]-GW0438X was added to the blocked receptor-bead. The receptor-bead-radioligand mix was added directly to test compounds in 384-well plates. […] Nonspecific binding was determined in the presence of 10 uM GW0438. Data analysis was achieved using a three-parameter fit. The data were calculated as pIC50s. The pEC50 values were obtained from measurement of Luciferase reporter activity in CV-1 cells transfected with full-length hPXR.

Molecules are shown by their SMILES.

Here are results for two compounds from BindingDB's records for doi:10.1016/j.bmc.2006.12.026 (University of North Carolina At Chapel Hill, 2007).

The EC50 is the concentration at which the effect is half-maximal. The low end stands for a more potent agent, the high end for a less potent agent. Usually IC50 stands for the concentration that inhibits the measured activity by half. Low values mean greater potency in that assay, high ones weaker potency in that assay.

In turn, `CCC(O)(c1ccc(N(CC(F)(F)F)S(=O)(=O)c2ccccc2)cc1)C(F)(F)F` (stereo not drawn) [N-[4-(1,1,1-trifluoro-2-hydroxybutan-2-yl)phenyl]-N-(2,2,2-trifluoroethyl)benzenesulfonamide] showed an EC50 of 126 nM and a concentration for half-maximal inhibition (IC50) of 251 nM.
`O=S(=O)(c1ccccc1)N(CC(F)(F)F)c1ccc(C(O)(C2CCCCC2)C(F)(F)F)cc1` (stereo not drawn) [N-[4-(1-cyclohexyl-2,2,2-trifluoro-1-hydroxyethyl)phenyl]-N-(2,2,2-trifluoroethyl)benzenesulfonamide]: the EC50 was 3 nM.
